Experimental data reported in PMC10568103, “Quantification of soluble epoxide hydrolase inhibitors in experimental and clinical samples using the nanobody-based ELISA” (Journal of Pharmaceutical Analysis, 2023).

Legend:
human sEH [1] = target: T1, human sEH (Homo sapiens, UniProt P34913); test: Inhibition of human sEH in vitro (potency unit definition, assay of Jones et al.); format: biochemical; conditions: 1 nM human sEH, read-out: 1 Potency unit: concentration permitting the inhibition of 50% of 1 nM of the human sEH
T1 sequence (P34913 1-555): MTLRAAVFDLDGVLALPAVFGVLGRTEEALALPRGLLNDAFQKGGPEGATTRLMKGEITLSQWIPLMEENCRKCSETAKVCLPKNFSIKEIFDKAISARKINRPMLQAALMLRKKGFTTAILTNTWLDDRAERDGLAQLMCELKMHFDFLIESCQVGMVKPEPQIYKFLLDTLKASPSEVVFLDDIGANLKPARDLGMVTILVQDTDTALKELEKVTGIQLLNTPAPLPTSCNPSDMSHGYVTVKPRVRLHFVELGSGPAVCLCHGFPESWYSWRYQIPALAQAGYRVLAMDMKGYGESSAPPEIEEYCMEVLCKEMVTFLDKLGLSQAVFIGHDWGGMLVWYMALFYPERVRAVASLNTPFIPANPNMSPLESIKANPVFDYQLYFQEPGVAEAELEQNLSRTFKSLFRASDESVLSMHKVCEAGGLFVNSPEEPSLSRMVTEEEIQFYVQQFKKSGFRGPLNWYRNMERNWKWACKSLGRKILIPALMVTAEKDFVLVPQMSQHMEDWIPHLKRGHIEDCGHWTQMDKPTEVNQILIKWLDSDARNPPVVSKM

Nb-EC03 = test: Nb-based indirect competitive ELISA for EC5026 (EC5026 immunoassay); conditions: for EC5026 immunoassay IC50: Nb-EC03, cAg 2-BSA; for EC5026 immunoassay CR: CR% = IC50 (EC5026)/IC50 (analog) × 100%
Method: (d) 100 μL of HRP-anti-HA was introduced, incubated and shaken for another 60 min; (e) after the final washing step, 100 μL of the TMB substrate solution was added and incubated for 15 min, followed by being stopped by 50 μL of H2SO4 solution (1.0 M). […] The linear range was established between the IC20 value and the IC80 value.

Nb-TP02 = test: Nb-based indirect competitive ELISA for TPPU (TPPU immunoassay); format: binding, llama; conditions: for TPPU immunoassay CR: CR% = IC50 (TPPU)/IC50 (analog) × 100%; for TPPU immunoassay IC50: Nb-TP02, cAg 6-OVA
Source text: The limit of detection (LOD) of Nb-based ELISAs for detecting the concentrations of the sEHI was defined as the concentration of sEHI that provided a 10% inhibition rate (IC10 value). […]

[2] = LC-MS analysis of urine samples from human clinical trial with EC5026; format: in vivo
Method: To assess the feasibility of Nb-based ELISAs for EC5026 and TPPU, the human urine and FBS were used as the matrix for precision and accuracy determination. The precision is shown as coefficient variation (CV%). The accuracy is expressed by the recovery, and the recovery is calculated as (Found concentration/Spiked concentration) × 100%. The standard solutions of EC5026 or TPPU were spiked blindly into human urine and FBS to obtain final concentrations of 1.25, 5 and 20 ng/mL, respectively. The experimental urine samples were collected from participants in the human clinical trial for EC5026, and the supernatant was collected by centrifugation (10,000 g, 5 min, 4 °C). The processed clinical samples were divided into two aliquots. One was diluted 10 times and then was detected by the Nb-based ELISA, and the other was for the LC-MS analysis directly in a bind fashion by different scientists.
The urine samples were analyzed by an LC-MS/MS method using Waters (Milford, MA, USA) Acquity UPLC system with Waters Xevo TQS tandem mass spectrometer. The separation was implemented on a Phenomenex Kinetex 150 x 2 mm C18 column. The mobile phases are 0.1 % of acetic acid in water as phase A, 0.1% of acetic acid in methanol as phase B. The gradient of the separation started from 50% of B and increased to 63% of B at 3.6 min then ramped to 95% at 4 min. The flow rate was 0.4 mL/min. The mass spectrometer was operated with negative electrospray ionization. The MRM transitions are 404.2/194 for EC5026, 420.2/194 for both M1 and M2. The source parameters of mass spectrometer are: capillary voltage: –3 KV, desolvation temperature: 300°C, desolvation gas flow: 800 L/hr; cone: 150 L/min; nebulizer: 7 bar.

human sEH [3] = target: T1, human sEH; test: Activity on the target sEH enzyme; format: biochemical
[4] = Subject 1, 0–8 h post exposure to EC5026
[5] = Subject 1, 8–16 h post exposure to EC5026
[6] = Subject 1, 16–24 h post exposure to EC5026
[7] = Subject 1, 24–32 h post exposure to EC5026
[8] = Subject 1, 32–40 h post exposure to EC5026
[9] = Subject 1, 40–48 h post exposure to EC5026
[10] = Subject 2, 0–8 h post exposure to EC5026
[11] = Subject 2, 8–16 h post exposure to EC5026
[12] = Subject 2, 16–24 h post exposure to EC5026
[13] = Subject 2, 24–32 h post exposure to EC5026
[14] = Subject 2, 32–40 h post exposure to EC5026
[15] = Subject 2, 40–48 h post exposure to EC5026
[16] = Subject 3, 0–8 h post exposure to EC5026
[17] = Subject 3, 8–16 h post exposure to EC5026
[18] = Subject 3, 16–24 h post exposure to EC5026
[19] = Subject 3, 24–32 h post exposure to EC5026
[20] = Subject 3, 32–40 h post exposure to EC5026
[21] = Subject 3, 40–48 h post exposure to EC5026

SMILES: C[C@H](C(=O)N1CCC(NC(=O)Nc2ccc(OC(F)(F)F)c(F)c2)CC1)[C@@H](C)O [M1, 1-(3-fluoro-4-(trifluoromethoxy)phenyl)-3-(1-((2S,3R)-3-hydroxy-2-methylbutanoyl)piperidin-4-yl)urea]
- IC50 (human sEH [1]): 0.0961 nM
- EC5026 immunoassay IC50 (Nb-EC03): 1.47 ng/mL
- TPPU immunoassay CR (Nb-TP02): 72.7%
- TPPU immunoassay IC50 (Nb-TP02): 4.10 ng/mL
- [M1] LC-MS analysis [2, 4]: 24.22 ng/mL
- [M1] LC-MS analysis [2, 5]: 44.30 ng/mL
- [M1] LC-MS analysis [2, 6]: 35.82 ng/mL
- [M1] LC-MS analysis [2, 7]: 48.89 ng/mL
- [M1] LC-MS analysis [2, 8]: 36.78 ng/mL
- [M1] LC-MS analysis [2, 9]: 33.49 ng/mL
- [M1] LC-MS analysis [2, 10]: 12.48 ng/mL
- [M1] LC-MS analysis [2, 11]: 38.41 ng/mL
- [M1] LC-MS analysis [2, 12]: 43.37 ng/mL
- [M1] LC-MS analysis [2, 13]: 35.76 ng/mL
- [M1] LC-MS analysis [2, 14]: 55.70 ng/mL
- [M1] LC-MS analysis [2, 15]: 40.74 ng/mL
- [M1] LC-MS analysis [2, 16]: 13.41 ng/mL
- [M1] LC-MS analysis [2, 17]: 36.41 ng/mL
- [M1] LC-MS analysis [2, 18]: 67.03 ng/mL
- [M1] LC-MS analysis [2, 19]: 31.25 ng/mL
- [M1] LC-MS analysis [2, 20]: 67.62 ng/mL
- [M1] LC-MS analysis [2, 21]: 98.28 ng/mL

SMILES: Nc1ccc(OC(F)(F)F)c(F)c1 [Compound 14, 3-fluoro-4-(trifluoromethoxy)aniline]
- EC5026 immunoassay CR (Nb-EC03): <0.01%
- EC5026 immunoassay IC50 (Nb-EC03): >150000 ng/mL
- TPPU immunoassay CR (Nb-TP02): <0.01%
- TPPU immunoassay IC50 (Nb-TP02): >300000 ng/mL
- IC50 (human sEH [3]): > 50000 nM

SMILES: CC[C@H](C)C(=O)N1CCC(NC(=O)Nc2ccc(OC(F)(F)F)c(F)c2)CC1 [EC5026]
- EC5026 immunoassay CR (Nb-EC03): 100%
- Curve parameters IC50 (Nb-EC03; Nb-EC03, cAg 1-BSA (homologous)): 7.32 ng/mL
- Curve parameters IC50 (Nb-EC03; Nb-EC03, cAg 1-OVA (homologous)): 5.68 ng/mL
- EC5026 immunoassay IC50 (Nb-EC03): 1.44 ng/mL
- Curve parameters IC50 (Nb-EC03; Nb-EC03, cAg 2-OVA (homologous)): 1.48 ng/mL
- Curve parameters IC50 (Nb-EC03; Nb-EC03, cAg 3-BSA (heterologous)): 11.45 ng/mL
- Curve parameters IC50 (Nb-EC03; Nb-EC03, cAg 3-OVA (heterologous)): 12.49 ng/mL
- TPPU immunoassay CR (Nb-TP02): 86.6%
- TPPU immunoassay IC50 (Nb-TP02): 3.44 ng/mL
- [EC5026] LC-MS analysis [2, 4]: 2.96 ng/mL
- [EC5026] LC-MS analysis [2, 5]: 1.41 ng/mL
- [EC5026] LC-MS analysis [2, 6]: 1.81 ng/mL
- [EC5026] LC-MS analysis [2, 7]: 1.43 ng/mL
- [EC5026] LC-MS analysis [2, 8]: 1.63 ng/mL
- [EC5026] LC-MS analysis [2, 9]: 1.24 ng/mL
- [EC5026] LC-MS analysis [2, 10]: 3.01 ng/mL
- [EC5026] LC-MS analysis [2, 11]: 5.57 ng/mL
- [EC5026] LC-MS analysis [2, 12]: 4.86 ng/mL
- [EC5026] LC-MS analysis [2, 13]: 2.84 ng/mL
- [EC5026] LC-MS analysis [2, 14]: 3.46 ng/mL
- [EC5026] LC-MS analysis [2, 15]: 2.01 ng/mL
- [EC5026] LC-MS analysis [2, 16]: 6.53 ng/mL
- [EC5026] LC-MS analysis [2, 17]: 4.69 ng/mL
- [EC5026] LC-MS analysis [2, 18]: 2.59 ng/mL
- [EC5026] LC-MS analysis [2, 19]: 2.98 ng/mL
- [EC5026] LC-MS analysis [2, 20]: 2.06 ng/mL
- [EC5026] LC-MS analysis [2, 21]: 1.18 ng/mL

SMILES: O=C(Nc1ccc(OC(F)(F)F)cc1)NC1CCNCC1 [Compound 12]
- TPPU immunoassay CR (Nb-TP02): 25.6%
- TPPU immunoassay IC50 (Nb-TP02): 11.66 ng/mL

SMILES: C[C@H](O)[C@H](C)C(=O)N1CCC(NC(=O)Nc2ccc(OC(F)(F)F)c(F)c2)CC1 [M2, 1-(3-fluoro-4-(trifluoromethoxy)phenyl)-3-(1-((2S,3S)-3-hydroxy-2-methylbutanoyl)piperidin-4-yl)urea]
- IC50 (human sEH [1]): 0.0961 nM
- EC5026 immunoassay IC50 (Nb-EC03): 1.38 ng/mL
- TPPU immunoassay CR (Nb-TP02): 59.4%
- TPPU immunoassay IC50 (Nb-TP02): 5.01 ng/mL
- [M2] LC-MS analysis [2, 4]: 28.66 ng/mL
- [M2] LC-MS analysis [2, 5]: 61.59 ng/mL
- [M2] LC-MS analysis [2, 6]: 51.04 ng/mL
- [M2] LC-MS analysis [2, 7]: 67.21 ng/mL
- [M2] LC-MS analysis [2, 8]: 47.44 ng/mL
- [M2] LC-MS analysis [2, 9]: 43.94 ng/mL
- [M2] LC-MS analysis [2, 10]: 12.99 ng/mL
- [M2] LC-MS analysis [2, 11]: 53.46 ng/mL
- [M2] LC-MS analysis [2, 12]: 59.34 ng/mL
- [M2] LC-MS analysis [2, 13]: 45.69 ng/mL
- [M2] LC-MS analysis [2, 14]: 75.89 ng/mL
- [M2] LC-MS analysis [2, 15]: 52.38 ng/mL
- [M2] LC-MS analysis [2, 16]: 14.93 ng/mL
- [M2] LC-MS analysis [2, 17]: 50.31 ng/mL
- [M2] LC-MS analysis [2, 18]: 106.12 ng/mL
- [M2] LC-MS analysis [2, 19]: 44.20 ng/mL
- [M2] LC-MS analysis [2, 20]: 103.57 ng/mL
- [M2] LC-MS analysis [2, 21]: 158.70 ng/mL

SMILES: CCC(=O)N1CCC(NC(=O)Nc2ccc(OC(F)(F)F)cc2)CC1 [TPPU, 1-trifluoromethoxyphenyl-3-(1-propionylpiperidin-4-yl)urea]
- EC5026 immunoassay CR (Nb-EC03): 52.9%
- EC5026 immunoassay IC50 (Nb-EC03): 2.72 ng/mL
- TPPU immunoassay CR (Nb-TP02): 100%
- Curve parameters IC50 (Nb-TP02; Nb-TP02, cAg 4-BSA (homologous)): 2.53 ng/mL
- Curve parameters IC50 (Nb-TP02; Nb-TP02, cAg 4-OVA (homologous)): 2.76 ng/mL
- Curve parameters IC50 (Nb-TP02; Nb-TP02, cAg 5-BSA (homologous)): 4.53 ng/mL
- Curve parameters IC50 (Nb-TP02; Nb-TP02, cAg 5-OVA (homologous)): 2.44 ng/mL
- Curve parameters IC50 (Nb-TP02; Nb-TP02, cAg 6-BSA (heterologous)): 2.40 ng/mL
- TPPU immunoassay IC50 (Nb-TP02): 2.98 ng/mL

SMILES: Nc1ccc(OC(F)(F)F)cc1 [Compound 15, 4-(trifluoromethoxy)aniline]
- EC5026 immunoassay CR (Nb-EC03): <0.01%
- EC5026 immunoassay IC50 (Nb-EC03): >150000 ng/mL
- TPPU immunoassay CR (Nb-TP02): <0.01%
- TPPU immunoassay IC50 (Nb-TP02): >300000 ng/mL
- IC50 (human sEH [3]): > 50000 nM

SMILES: O=C(Nc1ccc(OC(F)(F)F)c(F)c1)NC1CCNCC1 [Compound 11, 1-(3-fluoro-4-(trifluoromethoxy)phenyl)-3-(piperidin-4-yl)urea]
- EC5026 immunoassay CR (Nb-EC03): 34.0%
- EC5026 immunoassay IC50 (Nb-EC03): 4.23 ng/mL
- TPPU immunoassay CR (Nb-TP02): 33.4%
- TPPU immunoassay IC50 (Nb-TP02): 8.91 ng/mL
